Source: US5591741A, “Fungicidal spiroheterocyclic derivatives” (American Cyanamid Company, priority 1993, dated 1997)

What was measured:
Botrytis cinerea = experiment: Direct protectant activity against broad bean grey mould (BCB); assay type: in vivo; conditions: direct protectant foliar spray, 600 ppm, 4 days
Method in brief: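 Broad bean plants (cv The Sutton, two leaf pairs) sprayed on upper leaf surfaces at 600 ppm, then inoculated 24 h later with 10^6 conidia/ml. Kept 4 days at 22 °C, high humidity; disease control rated from % leaf area with lesions against untreated or diluent controls.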

Venturia inaequalis = experiment: Activity against apple scab in-vitro (VII); assay type: cell-based; conditions: 10 ppm, 10 days, 20° C., mycelial growth
Method in brief: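 Compound in acetone was tested at 10 ppm final in half-strength Potato Dextrose Broth inoculated with V. inaequalis mycelial fragments and spores at 5×10^4 propagules/ml. After 10 days at 20° C, mycelial growth was rated against untreated or diluent controls.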

Alternaria solani = experiment: Activity against tomato early blight (AS); assay type: in vivo; conditions: Table VI; tomato seedlings, contact prophylactic foliar spray, 4 days
Method in brief: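 Foliar contact prophylactic spray on tomato seedlings (cv Outdoor Girl, second true leaf expanded) in acetone/water 50:50 with 0.04% Tween 20; 24 h at 20° C, 40% R.H., then inoculation with 10^4 spores/ml A. solani conidia. Kept moist at 21° C; lesion cover rated 4 days post-inoculation against untreated or diluent-sprayed controls.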

[1] = system: Erysiphe graminis f.sp. hordei; experiment: Direct protectant activity against barley powdery mildew (EGP); assay type: in vivo; conditions: direct protectant foliar spray, 8 days
Method in brief: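 Barley seedlings (cv Golden Promise, single-leaf stage) were foliar-sprayed, held 24 h at 18 °C/40% RH, then dusted with mildew conidia. After 8 days at 18 °C/40% RH, sporulating leaf area was scored as a rating against untreated or diluent-sprayed controls.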

Phytophthora infestans = assay type: in vivo; conditions: tomato, direct protectant foliar spray
Leptosphaeria nodorum = experiment: Activity against wheat leafspot (LN); assay type: in vivo; conditions: direct therapeutic foliar spray, 600 ppm, 6-8 days
Method in brief: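 Wheat cv Norman at single-leaf stage spray-inoculated with 1.5×10^6 conidia/ml, held 24 h at high humidity, then sprayed therapeutically with test compound at 600 ppm. Kept 6-8 days at 22° C, 70% humidity; lesion density per leaf rated against untreated or diluent-sprayed controls.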

[2] = system: Erysiphe graminis f.sp. hordei; experiment: Activity against barley powdery mildew, direct therapeutic (EGT); assay type: in vivo; conditions: direct therapeutic foliar spray, 600 ppm, up to 7 days
Method in brief: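 Barley seedlings (cv. Golden Promise, single-leaf stage) were dusted with mildew conidia one day before a therapeutic foliar spray of 600 ppm compound. Plants were kept at 18 °C and 40% humidity for up to 7 days, and sporulating leaf area was rated against untreated or diluent-sprayed controls.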

Rhizoctonia solani = experiment: Activity against Rhizoctonia in-vitro (RSI); assay type: cell-based; conditions: 10 ppm, 10 days, 20° C., mycelial growth
Method in brief: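 R. solani mycelial fragments (5×10^4/ml) in half-strength Potato Dextrose Broth with compound added from acetone to 10 ppm final. Mycelial growth assessed after 10 days at 20° C, rated against untreated or diluent control.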

Pyricularia oryzae = assay type: in vivo; conditions: rice seedlings, direct therapeutic foliar spray, 600 ppm, 4-5 days
[3] = system: Pseudocercosporella herpotrichoides; experiment: Activity against wheat eyespot in-vitro (PHI); assay type: cell-based; conditions: 10 ppm, 10 days, 20° C., mycelial growth
Method in brief: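 P. herpotrichoides mycelial fragments (5×10^4/ml) grown in half-strength PDB with compound at 10 ppm final, added from acetone. Incubated 10 days at 20 °C; mycelial growth rated against untreated or diluent controls.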

Plasmopara viticola = experiment: Antisporulant activity against vine downy mildew (PVA); assay type: in vivo; conditions: vine leaves, antisporulant foliar spray, 600 ppm, 750 l/ha
Method in brief: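 Cabernet Sauvignon vines (~8 cm) inoculated on lower leaf surfaces with 5×10^4 zoosporangia/ml, held 24 h at 21° C high humidity then 24 h glasshouse. Infected leaves sprayed underside with 600 ppm compound in 1:1 water/acetone, 0.04% Tween 20, 750 l/ha; 96 h glasshouse, 24 h humidity. Sporulating leaf area rated versus control.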

Compound	disease control rating BCB (Botrytis cinerea)	disease control rating VII (Venturia inaequalis)	disease control rating AS (Alternaria solani)	disease control rating EGP [1]	disease control rating PIP (Phytophthora infestans)	disease control rating LN (Leptosphaeria nodorum)	disease control rating EGT [2]	disease control rating RSI (Rhizoctonia solani)	disease control rating PO (Pyricularia oryzae)	disease control rating PHI [3]	disease control rating PVA (Plasmopara viticola)
CCCCCN(C(C)C)C1COC2(CCC(C(C)(C)C)CC2)C1 (centres unmarked) [Compound 76]	0 (less than 50% disease control)	0 (less than 50% disease control)	0 (less than 50% disease control)	2 (greater than 80% disease control)	0 (less than 50% disease control)	0 (less than 50% disease control)	2 (greater than 80% disease control)	0 (less than 50% disease control)	0 (less than 50% disease control)	0 (less than 50% disease control)	0 (less than 50% disease control)
CCCCCN(C1CCCCC1)C1COC2(CCC(C(C)(C)C)CC2)C1 (centres unmarked) [Compound 77]	0 (less than 50% disease control)	0 (less than 50% disease control)	0 (less than 50% disease control)	2 (greater than 80% disease control)	0 (less than 50% disease control)	0 (less than 50% disease control)	2 (greater than 80% disease control)	0 (less than 50% disease control)	0 (less than 50% disease control)	0 (less than 50% disease control)	0 (less than 50% disease control)
CCCCCN(C)C1COC2(CCC(C(C)(C)C)CC2)C1 (centres unmarked) [Compound 78]	1 (about 50-80% disease control)	0 (less than 50% disease control)	0 (less than 50% disease control)	2 (greater than 80% disease control)	0 (less than 50% disease control)	0 (less than 50% disease control)	2 (greater than 80% disease control)	0 (less than 50% disease control)	0 (less than 50% disease control)	0 (less than 50% disease control)	0 (less than 50% disease control)
C=CCN(C1CCCCC1)C1COC2(CCC(C(C)(C)C)CC2)C1 (centres unmarked) [Compound 79]	1 (about 50-80% disease control)	0 (less than 50% disease control)	0 (less than 50% disease control)	2 (greater than 80% disease control)	2 (greater than 80% disease control)	0 (less than 50% disease control)	2 (greater than 80% disease control)	0 (less than 50% disease control)	0 (less than 50% disease control)	0 (less than 50% disease control)	0 (less than 50% disease control)
CN(C1CCCCC1)C1COC2(CCC(C(C)(C)C)CC2)C1 (centres unmarked) [Compound 80]	1 (about 50-80% disease control)	0 (less than 50% disease control)	0 (less than 50% disease control)	2 (greater than 80% disease control)	2 (greater than 80% disease control)	1 (about 50-80% disease control)	2 (greater than 80% disease control)	1 (about 50-80% disease control)	1 (about 50-80% disease control)	0 (less than 50% disease control)	0 (less than 50% disease control)
CC(C)(C)NC1COC2(CCC(C(C)(C)C)CC2)C1 (centres unmarked) [Compound 81]	2 (greater than 80% disease control)	0 (less than 50% disease control)	0 (less than 50% disease control)	2 (greater than 80% disease control)	2 (greater than 80% disease control)	0 (less than 50% disease control)	2 (greater than 80% disease control)	0 (less than 50% disease control)	0 (less than 50% disease control)	0 (less than 50% disease control)	0 (less than 50% disease control)
CC(C)(C)C1CCC2(CC1)CC(NCC1CCCCC1)CO2 (centres unmarked) [Compound 82]	2 (greater than 80% disease control)	0 (less than 50% disease control)	0 (less than 50% disease control)	2 (greater than 80% disease control)	0 (less than 50% disease control)	1 (about 50-80% disease control)	2 (greater than 80% disease control)	0 (less than 50% disease control)	0 (less than 50% disease control)	0 (less than 50% disease control)	0 (less than 50% disease control)
CCC(CC)NC1COC2(CCC(C(C)(C)C)CC2)C1 (centres unmarked) [Compound 83]	1 (about 50-80% disease control)	0 (less than 50% disease control)	0 (less than 50% disease control)	2 (greater than 80% disease control)	0 (less than 50% disease control)	0 (less than 50% disease control)	2 (greater than 80% disease control)	0 (less than 50% disease control)	0 (less than 50% disease control)	0 (less than 50% disease control)	0 (less than 50% disease control)
CCCCCCNC1CC2(CCC(C(C)(C)C)CC2)OC1C (centres unmarked) [Compound 84]	0 (less than 50% disease control)	1 (about 50-80% disease control)	0 (less than 50% disease control)	2 (greater than 80% disease control)	2 (greater than 80% disease control)	0 (less than 50% disease control)	2 (greater than 80% disease control)	1 (about 50-80% disease control)	0 (less than 50% disease control)	0 (less than 50% disease control)	0 (less than 50% disease control)
CC(C)(C)C1CCC2(CC1)CC(NC1CC3CCC1C3)CO2 (centres unmarked) [Compound 85]	2 (greater than 80% disease control)	1 (about 50-80% disease control)	0 (less than 50% disease control)	2 (greater than 80% disease control)	2 (greater than 80% disease control)	0 (less than 50% disease control)	2 (greater than 80% disease control)	0 (less than 50% disease control)	0 (less than 50% disease control)	0 (less than 50% disease control)	0 (less than 50% disease control)
